Measurements reported in PMC7022378, “Structural Analyses on the Deamidation of N-Terminal Asn in the Human N-Degron Pathway” (Biomolecules, 2020).
Where a chain is given by its changes, count along the chain named. Each block holds one molecule with its values, some of them ahead of it.

Tests used:
NTAN1 (wild-type) = molecular target: T1, NTAN1 (wild-type) (Homo sapiens, UniProt Q96AB6); assay: In vitro deamidation assay quantified by LC-MS, wild-type NTAN1; type: biochemical; conditions: 200 mM NaCl, 10 mM HEPES-NaOH (pH 7.0); for Deamidation activity on NXAAR peptides: 100 μM peptide, 37 °C, 1-20 min, three independent experiments; for Deamidation with 0.16 μM NTAN1: 0.16 μM NTAN1, 37 °C
T1 construct: The gene for full-length NTAN1 was cloned into pET-21a(+); made in house; host or cells: E. coli Rosetta 2(DE3)
T1 sequence (Q96AB6 1-310): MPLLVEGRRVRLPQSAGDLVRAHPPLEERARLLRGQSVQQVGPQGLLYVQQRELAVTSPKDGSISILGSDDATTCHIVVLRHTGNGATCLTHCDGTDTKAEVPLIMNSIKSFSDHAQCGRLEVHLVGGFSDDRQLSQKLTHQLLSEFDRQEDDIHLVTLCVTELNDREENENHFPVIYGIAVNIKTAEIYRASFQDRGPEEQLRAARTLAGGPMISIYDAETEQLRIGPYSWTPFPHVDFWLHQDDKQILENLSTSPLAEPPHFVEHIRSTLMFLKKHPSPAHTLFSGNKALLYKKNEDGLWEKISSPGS
Experimental: We synthesized codon-optimized NTAN1 gene of which sequence information was provided by Georgiou et al. for protein expression in Escherichia coli. The gene for full-length NTAN1 was cloned into pET-21a(+) (Novagen, Darmstadt, Germany) between Nde1 and Xho1 restriction sites to have C-terminal hexahistidine tag. NTAN1 was overexpressed in the Rosetta 2(DE3), E. coli strain (Novagen, Darmstadt, Germany). The transformed cells were grown in Luria-Bertani media containing ampicillin at 37 °C until the optical density at 600 nm reached 0.5 and protein expression was induced by 0.5 mM isopropyl β-D-1-thiogalactopyranoside. The cells were shake-incubated for additional for 16 h at 18 °C and harvested by centrifugation at 6000 × g for 10 min (Figure S1). The harvested cells were resuspended in a buffer containing 500 mM NaCl, 20 mM Tris-HCl (pH 7.5), 35 mM imidazole, and 1 mM phenylmethylsulfonyl fluoride and subsequently lysed by sonication. Lysed cells were centrifuged at 35,000 × g for 1 h. The resultant supernatant was filtered with 0.45 μm filter device (Sartorius, Göttingen, Germany) and loaded onto a 5-mL HiTrap Chelating HP column (GE Healthcare, Chicago, IL, USA) which had been pre-charged with Ni^2+ and equilibrated with a buffer containing 500 mM NaCl, 20 mM Tris-HCl (pH 7.5), and 35 mM imidazole. After nonspecifically bound proteins were eluted, the retained proteins were eluted by addition of an increasing gradient of a buffer containing 500 mM NaCl, 20 mM Tris-HCl (pH 7.5), and 1 M imidazole. The proteins were loaded onto a HiPrep Desalting 26/10 column (GE Healthcare, Chicago, IL, USA) and eluted with a buffer containing 50 mM NaCl and 20 mM Tris-HCl (pH 7.5) The eluates were loaded onto a HiTrap 5-mL Q HP column (GE Healthcare, Chicago, IL, USA) which had been equilibrated with a buffer containing 50 mM NaCl and 20 mM Tris-HCl (pH 7.5). After nonspecifically bound proteins were eluted, the retained proteins were eluted with addition of increasing gradient of a buffer containing 1 M NaCl and 20 mM Tris-HCl (pH 7.5). Finally, the proteins were concentrated, loaded onto a HiLoad 16/600 Superdex 200 pg column (GE Healthcare, Chicago, IL, USA), and eluted with a buffer containing 200 mM NaCl and 10 mM HEPES-NaOH (pH 7.0). Purity of the protein fractions was checked by sodium dodecyl sulfate-polyacrylamide gel electrophoresis after each purification step.
Peptides with Nt-Asn which mimic potential substrates of NTAN1 were synthesized: NRA, NRAA, NRAAA, NRQVA, NRQVAA, NRQVAAA, NFAAR, NLAAR, NRAAR, NAAAR, NNAAR, NPAAR, NGAAR, and NDAAR. Non-Nt-Asn peptides, QRAAA and VRAAA, were also synthesized. NTAN1 (at concentrations of 0.5 μM, 0.16 μM, or 0.04 μM) and the peptides (at a concentration of 100 μM) were mixed and incubated at 37 °C in a buffer containing 200 mM NaCl and 10 mM HEPES-NaOH (pH 7.0). The reactants sampled at various incubation time points (of 1, 2, 5, 10, and 20 min) were heat-inactivated at 95 °C for 10 min to stop further reaction. Subsequently, the samples were centrifuged at 20,000 × g and diluted 1/50 times with double-deionized water (DW) for liquid chromatography-mass spectrometry (LC-MS) analysis. The deamidation coefficient of peptides catalyzed by NTAN1 was assessed by the slope of exponential curve drawn from the concentration of the substrate over incubation time.
The peptides were quantified by an LC-MS system (1260 Infinity/6430 Triple Quad, Agilent Technologies) equipped with a binary pump (G1312B), a thermostated column compartment (G1316C), a thermostat (G1330B), and an autosampler (G1367E). Chromatographic separation was carried out by injecting an aliquot (2 µL) of analytical sample into a Kinetex C18 column (2.6 μm, 100 Å, 100 × 4.6 mm; Phenomenex, Torrance, CA, USA) with a C18 guard column (4 × 2.0 mm; Phenomenex, Torrance, CA, USA). The mobile phase consisted of acetonitrile and DW (30:70, v/v) with 0.2% (v/v) formic acid. […]

[1] = molecular target: T2, N-terminal asparagine amidohydrolase 1 (NTAN1) C75S mutant (human, UniProt Q96AB6 1-310, C75S); assay: SPR; NTAN1 C75S amine-coupled to a CM5 chip (3000 RU), Biacore T200; peptides at 1.95-62.50 μM injected for 120 s, 30 μL/min; 150 mM NaCl, 10 mM HEPES-NaOH pH 7.2, 0.1 mM TCEP, 0.001% polysorbate 20; 1:1 Langmuir model; conditions: both partners purified
T2 construct: N-terminal asparagine amidohydrolase 1 (NTAN1), human, full length, 310 residues; codon-optimized synthetic gene in pET-21a(+); catalytic Cys75 changed to Ser; C75S is not in the list of mutants in section 2.2; No step that cleaves the tag is described; source: E. coli Rosetta 2(DE3), purified as for NTAN1 (Ni2+ chelating, Q anion exchange, Superdex 200)
T2 sequence (looked up): T1 sequence (Q96AB6 1-310) with C75S

[2] = molecular target: T2, N-terminal asparagine amidohydrolase 1 …; assay: crystal structure; crystals of NTAN1 C75S soaked in reservoir solution with 10 mM synthetic peptide for 16 hr; two molecules in the asymmetric unit; conditions: both partners purified
[3] = molecular target: T3, NTAN1 S254A mutant (human) (UniProt Q96AB6)
T3 sequence: T1 sequence (Q96AB6 1-310) with S254A

[4] = 0.5 μM NTAN1 (Figure 2d; NNAAR also at 0.04 μM, Figure 2c)

Molecule: NRAAR [NXAAR substrate peptide, second-position Arg]
Deamidation activity on NXAAR peptides (NTAN1 (wild-type); 0.04 μM NTAN1 (Figure 2c)): moderate deamidation activity

Molecule: NLAAR [NXAAR substrate pentapeptide, second-position Leu]
Deamidation activity on NXAAR peptides (NTAN1 (wild-type); 0.04 μM NTAN1 (Figure 2c)): most efficiently deamidated

Molecule: NFAAR [NXAAR substrate pentapeptide, second-position Phe]
Deamidation activity on NXAAR peptides (NTAN1 (wild-type); 0.04 μM NTAN1 (Figure 2c)): most efficiently deamidated

B1: NLAAR peptide (peptide)
peptide: NLAAR
notes: model substrate peptide with N-terminal Asn; also called NLAAR pentapeptide; source: synthetic peptide
Kd [1]: 26.8 nM

B3: NAAAR peptide (peptide)
peptide: NAAAR
notes: model substrate peptide with N-terminal Asn; source: synthetic peptide
Kd [1]: 4670 nM

B4: NRAAA peptide (peptide)
peptide: NRAAA
in vitro deamidation of the NRAAA peptide, LC-MS, deamidation rate against wild-type NTAN1 (fold lower than wild type) [3]: 3

Other lines, results leading:

Deamidation activity on NXAAR peptides (NTAN1 (wild-type); [4]): low deamidation activities
Molecule: NPAAR [NXAAR substrate peptide, second-position Pro]

Deamidation activity on NXAAR peptides (NTAN1 (wild-type); [4]): low deamidation activities
Molecule: NGAAR [NXAAR substrate peptide, second-position Gly]

Deamidation with 0.16 μM NTAN1 (NTAN1 (wild-type)): deamidated too rapidly
Molecule: NRQVA [synthesized modified Nt-Asn peptide, model substrate of NTAN1]

Deamidation activity on NXAAR peptides (NTAN1 (wild-type); [4]): low deamidation activities
Molecule: NNAAR [NXAAR substrate peptide, second-position Asn]

Deamidation activity on NXAAR peptides (NTAN1 (wild-type); [4]): low deamidation activities
Molecule: NDAAR [NXAAR substrate peptide, second-position Asp]

Deamidation with 0.16 μM NTAN1 (NTAN1 (wild-type)): deamidated too rapidly
Molecule: NRQVAA [synthesized modified Nt-Asn peptide, model substrate of NTAN1]

Deamidation with 0.16 μM NTAN1 (NTAN1 (wild-type)): deamidated too rapidly
Molecule: NRQVAAA [synthesized modified Nt-Asn peptide, model substrate of NTAN1]

binding result [2]: binds
B2: NFAAR peptide (peptide)
peptide: NFAAR
notes: model substrate peptide with N-terminal Asn; also called NFAAR pentapeptide; source: synthetic peptide
